The source made the active and inactive calls. For most assays here, no stated cut-off is given here; in the data, actives have a measured Kd and inactives only a lower limit.
Assays:
[1] = target: T1, Serine/threonine-protein kinase ULK3 (Homo sapiens, UniProt Q6PHR2)
T1 sequence (Q6PHR2 whole entry): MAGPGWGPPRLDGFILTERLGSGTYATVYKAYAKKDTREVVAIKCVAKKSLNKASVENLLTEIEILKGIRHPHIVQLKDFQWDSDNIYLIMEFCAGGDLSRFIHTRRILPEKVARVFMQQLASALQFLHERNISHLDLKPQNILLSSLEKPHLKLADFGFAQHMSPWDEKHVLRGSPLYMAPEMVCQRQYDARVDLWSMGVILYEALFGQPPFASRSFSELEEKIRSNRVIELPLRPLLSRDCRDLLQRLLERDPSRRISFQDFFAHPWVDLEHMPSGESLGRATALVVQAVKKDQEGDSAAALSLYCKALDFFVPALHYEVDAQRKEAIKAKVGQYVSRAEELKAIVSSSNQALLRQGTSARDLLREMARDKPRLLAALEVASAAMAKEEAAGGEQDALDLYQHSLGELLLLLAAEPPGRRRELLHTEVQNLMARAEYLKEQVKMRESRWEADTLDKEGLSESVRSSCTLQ

[2] = target: T2, Ribosyldihydronicotinamide dehydrogenase [quinone] (Homo sapiens, UniProt P16083)
T2 sequence (P16083 whole entry): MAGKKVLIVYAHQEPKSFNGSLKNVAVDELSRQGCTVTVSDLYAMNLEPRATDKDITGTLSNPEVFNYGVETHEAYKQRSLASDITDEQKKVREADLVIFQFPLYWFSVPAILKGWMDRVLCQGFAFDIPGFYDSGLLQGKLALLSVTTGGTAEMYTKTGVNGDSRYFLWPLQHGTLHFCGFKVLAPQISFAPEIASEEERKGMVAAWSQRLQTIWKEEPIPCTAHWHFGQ

[3] = target: Calcium/calmodulin-dependent protein kinase type II subunit gamma (Homo sapiens, UniProt Q13555)
[4] = target: T3, MAP kinase-activated protein kinase 5 (Homo sapiens, UniProt Q8IW41)
T3 sequence (Q8IW41 whole entry): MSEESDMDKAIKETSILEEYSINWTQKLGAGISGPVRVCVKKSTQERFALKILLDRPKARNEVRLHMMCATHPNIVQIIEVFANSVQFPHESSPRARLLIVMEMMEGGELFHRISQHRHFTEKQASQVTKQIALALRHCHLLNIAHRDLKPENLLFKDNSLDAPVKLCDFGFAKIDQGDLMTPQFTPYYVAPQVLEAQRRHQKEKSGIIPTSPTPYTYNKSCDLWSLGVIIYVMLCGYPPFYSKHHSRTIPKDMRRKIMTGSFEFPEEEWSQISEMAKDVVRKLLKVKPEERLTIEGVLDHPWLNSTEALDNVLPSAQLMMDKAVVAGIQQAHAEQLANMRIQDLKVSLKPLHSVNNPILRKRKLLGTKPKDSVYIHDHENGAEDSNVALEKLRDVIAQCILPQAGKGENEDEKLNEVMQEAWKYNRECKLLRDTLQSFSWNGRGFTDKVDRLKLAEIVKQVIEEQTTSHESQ

[5] = target: Mitogen-activated protein kinase kinase kinase 4 (Homo sapiens, UniProt Q9Y6R4)
[6] = target: T4, Serine/threonine-protein kinase Nek9 (Homo sapiens, UniProt Q8TD19)
T4 sequence (Q8TD19 whole entry): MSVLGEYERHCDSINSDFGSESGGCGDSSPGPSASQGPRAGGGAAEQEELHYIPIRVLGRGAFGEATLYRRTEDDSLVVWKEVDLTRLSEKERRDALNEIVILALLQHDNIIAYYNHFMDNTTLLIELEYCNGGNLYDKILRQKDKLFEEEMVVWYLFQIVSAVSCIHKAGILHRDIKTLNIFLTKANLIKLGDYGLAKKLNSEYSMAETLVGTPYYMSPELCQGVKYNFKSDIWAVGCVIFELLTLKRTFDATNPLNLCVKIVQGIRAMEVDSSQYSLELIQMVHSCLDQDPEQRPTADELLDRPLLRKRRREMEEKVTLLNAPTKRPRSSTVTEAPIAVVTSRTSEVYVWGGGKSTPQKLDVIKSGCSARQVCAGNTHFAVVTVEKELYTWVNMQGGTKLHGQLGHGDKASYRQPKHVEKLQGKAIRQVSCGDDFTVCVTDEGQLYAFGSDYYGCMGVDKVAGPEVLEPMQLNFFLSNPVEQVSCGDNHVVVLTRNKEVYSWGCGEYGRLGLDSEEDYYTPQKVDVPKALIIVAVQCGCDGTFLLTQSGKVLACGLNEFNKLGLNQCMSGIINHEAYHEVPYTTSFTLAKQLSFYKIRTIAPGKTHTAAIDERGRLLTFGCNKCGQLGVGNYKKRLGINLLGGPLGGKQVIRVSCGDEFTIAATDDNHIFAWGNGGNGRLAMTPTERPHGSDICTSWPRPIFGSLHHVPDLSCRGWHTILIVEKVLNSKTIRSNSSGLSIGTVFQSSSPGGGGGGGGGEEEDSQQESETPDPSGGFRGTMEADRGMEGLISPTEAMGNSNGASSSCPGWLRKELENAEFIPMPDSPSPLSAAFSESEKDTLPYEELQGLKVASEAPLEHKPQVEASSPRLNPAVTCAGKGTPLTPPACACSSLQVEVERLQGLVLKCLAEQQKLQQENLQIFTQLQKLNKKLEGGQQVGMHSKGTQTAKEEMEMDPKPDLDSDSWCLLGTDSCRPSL

[7] = target: Insulin-like growth factor 1 receptor (Homo sapiens, UniProt P08069)
Insulin receptor = Insulin receptor (Homo sapiens, UniProt P06213)
Myosin-14 = Myosin-14 (Homo sapiens, UniProt Q7Z406)
[8] = target: Cyclin-dependent kinase 1 (Homo sapiens, UniProt P06493)
[9] = target: Tyrosine-protein kinase ABL1 (Homo sapiens, UniProt P00519)
[10] = target: Serine/threonine-protein kinase SIK2 (Homo sapiens, UniProt Q9H0K1)
Sequence of Serine/threonine-protein kinase SIK2 (Q9H0K1 whole entry): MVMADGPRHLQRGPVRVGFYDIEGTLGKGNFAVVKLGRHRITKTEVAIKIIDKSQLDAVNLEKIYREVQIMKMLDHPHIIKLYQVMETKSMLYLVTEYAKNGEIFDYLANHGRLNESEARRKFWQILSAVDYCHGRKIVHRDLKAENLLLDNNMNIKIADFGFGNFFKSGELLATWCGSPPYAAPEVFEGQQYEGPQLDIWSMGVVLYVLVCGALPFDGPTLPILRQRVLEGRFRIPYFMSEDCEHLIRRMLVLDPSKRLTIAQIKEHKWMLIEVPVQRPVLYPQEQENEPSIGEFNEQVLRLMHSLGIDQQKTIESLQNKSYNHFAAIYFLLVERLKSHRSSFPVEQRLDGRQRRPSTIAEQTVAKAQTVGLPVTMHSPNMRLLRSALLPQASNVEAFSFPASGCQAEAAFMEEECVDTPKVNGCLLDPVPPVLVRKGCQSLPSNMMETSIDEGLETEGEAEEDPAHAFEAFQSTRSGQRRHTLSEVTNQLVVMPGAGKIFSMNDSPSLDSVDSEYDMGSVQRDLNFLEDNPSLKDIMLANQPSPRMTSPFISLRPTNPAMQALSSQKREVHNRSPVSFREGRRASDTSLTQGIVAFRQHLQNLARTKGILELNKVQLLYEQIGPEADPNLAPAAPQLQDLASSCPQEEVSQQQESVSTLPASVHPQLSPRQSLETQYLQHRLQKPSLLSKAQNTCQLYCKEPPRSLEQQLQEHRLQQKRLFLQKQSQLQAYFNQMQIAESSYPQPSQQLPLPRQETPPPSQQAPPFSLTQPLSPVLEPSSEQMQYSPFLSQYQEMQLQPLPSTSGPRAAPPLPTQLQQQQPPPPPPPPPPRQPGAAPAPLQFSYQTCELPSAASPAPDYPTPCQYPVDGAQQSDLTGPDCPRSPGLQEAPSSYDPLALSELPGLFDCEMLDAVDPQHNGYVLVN

Sequence of Insulin-like growth factor 1 receptor (P08069 31-736 limits assumed): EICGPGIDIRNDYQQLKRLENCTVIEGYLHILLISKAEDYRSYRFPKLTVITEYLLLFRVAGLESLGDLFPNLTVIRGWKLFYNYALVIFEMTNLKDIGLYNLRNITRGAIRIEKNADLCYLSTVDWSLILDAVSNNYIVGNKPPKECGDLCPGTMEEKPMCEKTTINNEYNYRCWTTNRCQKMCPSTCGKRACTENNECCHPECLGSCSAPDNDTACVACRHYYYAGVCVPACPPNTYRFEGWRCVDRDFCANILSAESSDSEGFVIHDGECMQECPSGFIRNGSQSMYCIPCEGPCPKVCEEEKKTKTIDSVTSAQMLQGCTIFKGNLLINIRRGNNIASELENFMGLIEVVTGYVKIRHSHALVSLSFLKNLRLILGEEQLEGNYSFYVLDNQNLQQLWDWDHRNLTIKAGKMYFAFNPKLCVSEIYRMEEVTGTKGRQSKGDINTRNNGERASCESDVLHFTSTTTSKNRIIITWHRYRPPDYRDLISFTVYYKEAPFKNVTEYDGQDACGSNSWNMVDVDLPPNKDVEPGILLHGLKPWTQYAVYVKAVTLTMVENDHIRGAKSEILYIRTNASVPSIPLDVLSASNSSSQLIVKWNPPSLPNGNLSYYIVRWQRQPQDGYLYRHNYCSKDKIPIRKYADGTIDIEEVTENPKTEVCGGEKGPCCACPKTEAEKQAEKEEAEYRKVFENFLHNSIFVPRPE
Sequence of Insulin-like growth factor 1 receptor (P08069 741-1367 limits assumed): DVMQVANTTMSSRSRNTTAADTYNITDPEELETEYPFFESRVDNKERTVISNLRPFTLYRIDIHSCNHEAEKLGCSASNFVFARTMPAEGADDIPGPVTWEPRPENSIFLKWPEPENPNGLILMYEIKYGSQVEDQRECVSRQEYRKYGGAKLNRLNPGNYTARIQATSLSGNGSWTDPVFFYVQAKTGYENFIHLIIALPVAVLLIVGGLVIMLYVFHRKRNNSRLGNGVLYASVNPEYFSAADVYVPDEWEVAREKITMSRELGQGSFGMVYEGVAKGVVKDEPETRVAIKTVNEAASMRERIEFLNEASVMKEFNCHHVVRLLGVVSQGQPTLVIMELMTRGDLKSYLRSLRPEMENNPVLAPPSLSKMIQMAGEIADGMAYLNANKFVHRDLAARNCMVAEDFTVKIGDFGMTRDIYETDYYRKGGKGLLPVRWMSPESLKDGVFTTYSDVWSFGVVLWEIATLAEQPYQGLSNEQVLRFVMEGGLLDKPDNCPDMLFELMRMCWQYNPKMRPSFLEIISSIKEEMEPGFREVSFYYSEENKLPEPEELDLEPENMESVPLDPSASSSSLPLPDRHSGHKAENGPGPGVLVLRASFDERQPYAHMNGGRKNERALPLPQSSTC
Sequence of Tyrosine-protein kinase ABL1 (P00519 whole entry): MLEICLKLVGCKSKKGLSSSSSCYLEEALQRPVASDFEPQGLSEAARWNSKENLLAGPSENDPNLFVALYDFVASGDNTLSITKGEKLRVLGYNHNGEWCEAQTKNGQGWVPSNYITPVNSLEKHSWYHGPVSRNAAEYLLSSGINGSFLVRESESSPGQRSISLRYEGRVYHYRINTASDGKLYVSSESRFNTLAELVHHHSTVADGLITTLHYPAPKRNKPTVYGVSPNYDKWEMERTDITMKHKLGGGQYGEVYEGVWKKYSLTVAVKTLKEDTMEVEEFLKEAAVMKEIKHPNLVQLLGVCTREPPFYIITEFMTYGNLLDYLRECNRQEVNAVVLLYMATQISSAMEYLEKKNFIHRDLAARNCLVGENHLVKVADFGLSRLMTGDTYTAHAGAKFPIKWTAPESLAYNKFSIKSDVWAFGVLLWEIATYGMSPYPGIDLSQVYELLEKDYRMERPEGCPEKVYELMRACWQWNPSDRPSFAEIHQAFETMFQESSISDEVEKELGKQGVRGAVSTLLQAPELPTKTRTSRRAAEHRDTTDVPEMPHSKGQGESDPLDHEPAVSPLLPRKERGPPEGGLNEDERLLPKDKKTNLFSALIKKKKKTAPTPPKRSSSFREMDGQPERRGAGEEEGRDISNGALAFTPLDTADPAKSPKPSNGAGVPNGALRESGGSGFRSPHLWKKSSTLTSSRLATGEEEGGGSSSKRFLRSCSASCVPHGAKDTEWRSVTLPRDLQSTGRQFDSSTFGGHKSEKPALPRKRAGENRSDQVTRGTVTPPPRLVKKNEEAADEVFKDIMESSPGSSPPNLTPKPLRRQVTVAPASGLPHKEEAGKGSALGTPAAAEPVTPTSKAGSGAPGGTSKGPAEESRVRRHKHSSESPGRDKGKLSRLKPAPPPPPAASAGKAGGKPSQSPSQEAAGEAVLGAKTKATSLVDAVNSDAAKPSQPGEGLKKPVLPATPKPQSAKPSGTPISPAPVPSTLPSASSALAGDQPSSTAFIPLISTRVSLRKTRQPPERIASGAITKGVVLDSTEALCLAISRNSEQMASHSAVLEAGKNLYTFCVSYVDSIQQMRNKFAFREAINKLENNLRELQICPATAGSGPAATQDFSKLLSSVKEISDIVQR
Sequence of Insulin receptor (P06213 28-758 limits assumed): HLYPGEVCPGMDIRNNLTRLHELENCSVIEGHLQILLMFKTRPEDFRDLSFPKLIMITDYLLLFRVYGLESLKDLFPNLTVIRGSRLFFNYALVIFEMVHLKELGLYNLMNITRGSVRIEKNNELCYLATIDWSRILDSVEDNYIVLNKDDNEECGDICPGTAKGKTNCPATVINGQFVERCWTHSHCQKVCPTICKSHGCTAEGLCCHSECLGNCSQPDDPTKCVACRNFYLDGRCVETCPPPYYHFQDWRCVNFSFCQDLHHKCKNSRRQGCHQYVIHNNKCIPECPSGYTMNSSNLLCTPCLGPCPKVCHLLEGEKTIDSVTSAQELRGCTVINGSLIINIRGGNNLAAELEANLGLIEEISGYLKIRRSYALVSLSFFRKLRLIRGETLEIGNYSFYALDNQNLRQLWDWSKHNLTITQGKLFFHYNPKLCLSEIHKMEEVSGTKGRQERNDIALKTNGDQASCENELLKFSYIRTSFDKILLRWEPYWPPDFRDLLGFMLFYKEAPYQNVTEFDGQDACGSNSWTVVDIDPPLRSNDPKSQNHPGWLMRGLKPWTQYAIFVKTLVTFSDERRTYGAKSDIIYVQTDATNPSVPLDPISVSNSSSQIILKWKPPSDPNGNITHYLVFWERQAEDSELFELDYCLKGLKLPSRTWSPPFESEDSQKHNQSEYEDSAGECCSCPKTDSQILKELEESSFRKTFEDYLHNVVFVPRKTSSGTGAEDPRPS
Sequence of Insulin receptor (P06213 763-1382 limits assumed): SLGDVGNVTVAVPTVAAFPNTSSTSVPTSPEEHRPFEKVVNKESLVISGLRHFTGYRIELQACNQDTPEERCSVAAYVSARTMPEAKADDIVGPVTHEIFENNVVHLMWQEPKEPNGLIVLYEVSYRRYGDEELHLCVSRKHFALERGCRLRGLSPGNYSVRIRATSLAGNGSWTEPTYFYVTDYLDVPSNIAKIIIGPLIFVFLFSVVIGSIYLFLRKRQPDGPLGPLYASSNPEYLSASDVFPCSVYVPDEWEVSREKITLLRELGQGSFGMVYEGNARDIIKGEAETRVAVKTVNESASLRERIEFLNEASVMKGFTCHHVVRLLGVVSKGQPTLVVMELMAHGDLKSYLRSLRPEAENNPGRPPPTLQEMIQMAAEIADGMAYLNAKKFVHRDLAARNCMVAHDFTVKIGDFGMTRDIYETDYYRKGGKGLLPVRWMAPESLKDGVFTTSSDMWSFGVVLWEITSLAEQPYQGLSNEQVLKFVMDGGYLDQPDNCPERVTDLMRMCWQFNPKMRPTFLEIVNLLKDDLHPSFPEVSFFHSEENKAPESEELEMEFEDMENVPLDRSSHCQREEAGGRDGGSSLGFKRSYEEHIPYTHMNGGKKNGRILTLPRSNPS
Sequence of Cyclin-dependent kinase 1 (P06493 whole entry): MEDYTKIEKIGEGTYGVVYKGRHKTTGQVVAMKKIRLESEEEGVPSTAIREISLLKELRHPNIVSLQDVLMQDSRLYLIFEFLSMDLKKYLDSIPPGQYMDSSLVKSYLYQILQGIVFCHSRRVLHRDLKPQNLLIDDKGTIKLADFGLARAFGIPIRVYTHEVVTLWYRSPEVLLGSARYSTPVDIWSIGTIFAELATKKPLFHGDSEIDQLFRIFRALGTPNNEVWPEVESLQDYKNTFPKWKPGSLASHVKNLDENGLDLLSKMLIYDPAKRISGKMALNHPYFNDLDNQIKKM

SMILES	Kd [1]	Kd [2]	Kd [3]	Kd [4]	Kd [5]	Kd [6]	Kd [7]	Kd (Insulin receptor)	Kd (Myosin-14)	Kd [8]	Kd [9]	Kd [10]
COc1cccc2cc(-c3nc([C@H]4CC[C@H](C(=O)O)CC4)n4ncnc(N)c34)[nH]c12 [OSI-027]	> 30 µM (inactive)	1.39 µM (active)	> 30 µM (inactive)	> 30 µM (inactive)	> 30 µM (inactive)	> 30 µM (inactive)	> 30 µM (inactive)	> 30 µM (inactive)	> 30 µM (inactive)	> 30 µM (inactive)	> 30 µM (inactive)	> 30 µM (inactive)
O=C(Nc1ccc(OC(F)(F)F)cc1)c1sccc1NCc1ccnc2ccccc12 [OSI-930]	> 30 µM (inactive)	> 30 µM (inactive)	> 30 µM (inactive)	> 30 µM (inactive)	> 30 µM (inactive)	> 30 µM (inactive)	> 30 µM (inactive)	> 30 µM (inactive)	> 30 µM (inactive)	> 30 µM (inactive)	> 30 µM (inactive)	> 30 µM (inactive)
C=CC(=O)Nc1cc(Nc2nccc(-c3cn(C)c4ccccc34)n2)c(OC)cc1N(C)CCN(C)C [OSIMERTINIB]	> 30 µM (inactive)	3.66 µM (active)	> 30 µM (inactive)	> 30 µM (inactive)	> 30 µM (inactive)	> 30 µM (inactive)	> 30 µM (inactive)	> 30 µM (inactive)	> 30 µM (inactive)	> 30 µM (inactive)	> 30 µM (inactive)	> 30 µM (inactive)
O=C(NC[C@H](O)CO)c1ccncc1Nc1ccc(I)cc1F [PIMASERTIB]	> 30 µM (inactive)	> 30 µM (inactive)	> 30 µM (inactive)	> 30 µM (inactive)	> 30 µM (inactive)	> 30 µM (inactive)	> 30 µM (inactive)	> 30 µM (inactive)	> 30 µM (inactive)	> 30 µM (inactive)	> 30 µM (inactive)	> 30 µM (inactive)
COc1cc(F)c(F)c(Nc2ccc(I)cc2F)c1NS(=O)(=O)C1(C[C@H](O)CO)CC1 [REFAMETINIB]	> 30 µM (inactive)	> 30 µM (inactive)	> 30 µM (inactive)	> 30 µM (inactive)	> 30 µM (inactive)	> 30 µM (inactive)	> 30 µM (inactive)	> 30 µM (inactive)	> 30 µM (inactive)	> 30 µM (inactive)	> 30 µM (inactive)	> 30 µM (inactive)
C=CC(=O)Nc1cccc(Nc2nc(Nc3ccc(N4CCN(C(C)=O)CC4)cc3OC)ncc2C(F)(F)F)c1 [ROCILETINIB]	> 30 µM (inactive)	> 30 µM (inactive)	> 30 µM (inactive)	> 30 µM (inactive)	> 30 µM (inactive)	> 30 µM (inactive)	> 30 µM (inactive)	> 30 µM (inactive)	> 30 µM (inactive)	> 30 µM (inactive)	> 30 µM (inactive)	> 30 µM (inactive)
CC(C)(O)CC(=O)NCCn1ccc2ncnc(Nc3ccc(Oc4cccc(C(F)(F)F)c4)c(Cl)c3)c21 [TAK-285]	> 30 µM (inactive)	> 30 µM (inactive)	> 30 µM (inactive)	> 30 µM (inactive)	> 30 µM (inactive)	> 30 µM (inactive)	> 30 µM (inactive)	> 30 µM (inactive)	> 30 µM (inactive)	> 30 µM (inactive)	> 30 µM (inactive)	> 30 µM (inactive)

— ChEMBL document CHEMBL3991601, “The target landscape of clinical kinase drugs” (Science, 2017)
